From ChEMBL document CHEMBL5729671, “Substituted pyrazolo[1,5-a]pyrazines as negative allosteric modulators of group II metabotropic glutamate receptor” (2023)

Target: Metabotropic glutamate receptor 2 (Homo sapiens, UniProt Q14416)
Assay: Assessment of mGlu2 Receptor Negative Allosteric Modulator Activity: Human mGlu2 receptor stable expressing cells were prepared and incubated. Luminescence signals by mGlu2 receptor stimulation were detected with FDSS7000 (Hamamatsu Photonics). The compound solution prepared above was added to a plate where cells and luminescent substrates were added (10 μl/well). After 120 seconds of the addition, EC80 Glutamate-containing solution was added thereto (10 μl/well), and luminescence signals were measured for 300 seconds after the addition (center wavelength: 465 nm) for calculation of RLU (Integration). mGlu2 receptor negative allosteric modulator activity of a compound was calculated by (100-100×(RLU of each compound and concentration)/(RLU of DMSO group)).The present compound was assessed with the above biological test, and the compounds with mGlu2 receptor negative allosteric modulator activity were found out.

Chain of Metabotropic glutamate receptor 2 (Q14416 whole entry): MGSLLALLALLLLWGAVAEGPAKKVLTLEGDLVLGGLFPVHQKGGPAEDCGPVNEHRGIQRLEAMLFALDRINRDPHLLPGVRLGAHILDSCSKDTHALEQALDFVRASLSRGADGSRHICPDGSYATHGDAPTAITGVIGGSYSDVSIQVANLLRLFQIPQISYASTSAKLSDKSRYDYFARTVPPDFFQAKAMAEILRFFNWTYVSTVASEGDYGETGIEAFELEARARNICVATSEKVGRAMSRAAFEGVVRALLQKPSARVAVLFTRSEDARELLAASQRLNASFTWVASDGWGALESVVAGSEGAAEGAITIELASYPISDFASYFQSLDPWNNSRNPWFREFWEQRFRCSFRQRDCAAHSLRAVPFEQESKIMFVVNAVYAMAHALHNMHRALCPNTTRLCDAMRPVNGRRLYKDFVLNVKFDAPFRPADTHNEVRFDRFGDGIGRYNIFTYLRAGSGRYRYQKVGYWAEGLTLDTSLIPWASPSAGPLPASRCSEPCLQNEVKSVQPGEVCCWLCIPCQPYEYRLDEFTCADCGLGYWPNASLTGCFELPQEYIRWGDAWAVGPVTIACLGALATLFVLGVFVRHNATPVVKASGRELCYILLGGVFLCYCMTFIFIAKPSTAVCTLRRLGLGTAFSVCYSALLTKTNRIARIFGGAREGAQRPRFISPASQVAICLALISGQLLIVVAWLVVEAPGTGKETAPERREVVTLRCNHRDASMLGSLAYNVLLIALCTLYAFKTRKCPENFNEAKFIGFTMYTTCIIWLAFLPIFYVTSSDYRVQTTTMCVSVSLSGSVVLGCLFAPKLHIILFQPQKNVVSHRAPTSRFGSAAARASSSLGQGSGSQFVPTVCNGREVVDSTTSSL

IC50 [nM] | SMILES
19 | C[C@H]1CN(c2ccc3c(c2)OC(F)(F)O3)C(=O)c2c(-c3ccc4nccn4c3)cnn21
9.1 | Cc1cnc2ccc(-c3cnn4c3C(=O)N(c3ccc(C(F)(F)F)cc3)C[C@@H]4C)cn12
7.8 | CCc1cnc2ccc(-c3cnn4c3C(=O)N(c3ccc(C(F)(F)F)cc3)C[C@@H]4C)cn12
26 | C[C@H]1CN(c2ccc(Cl)cc2)C(=O)c2c(-c3ccc4nccn4c3)cnn21
16 | Cc1cc(N2C[C@H](C)n3ncc(-c4ccc5ncc(C)n5c4)c3C2=O)ccc1F
18 | C[C@H]1CN(c2ccc(Cl)c(F)c2)C(=O)c2c(-c3ccc4nccn4c3)cnn21
16 | C[C@H]1CN(c2ccc(C(F)(F)F)cn2)C(=O)c2c(-c3ccc4nccn4c3)cnn21
